Patent publication US20170189484A1, “CEACAM5 PEPTIDES FOR CROHN'S DISEASE” (ICAHN SCHOOL OF MEDICINE AT MOUNT SINAI, priority 2014, published 2017)

Columns and labels:
Type in all cases: cell-based, human
[1] = tested on: peripheral blood CD8+ T cells; test: In vitro suppression assay, peripheral blood CD8+ T cells (CFSE CD4+ T cell proliferation); conditions: for percent suppression of CD4+ T cell proliferation (suppressive activity): single peptide 10 μg/mL, normalized against unstimulated CD8+ T cells; for suppressor activity acquired by stimulated CD8+ T cells (suppression of CD4+ T cell proliferation): 10 μg/mL, 3 days, co-culture 1:1 with CFSE-labeled CD3/CD28-stimulated CD4+ T cells
Excerpt: To identify the N-domain peptides that trigger the activation of CD8+ T cells with the suppressor phenotype, peripheral blood CD8^+ T cells and peripheral blood CD4^+ T cells were selected using CD8^+ and CD4^+ T-cell selection kits (Stemcell Technologies, Vancouver, Canada), respectively.
Anti-CD3/CD28 beads were used as positive controls. Cells were then washed, counted, and added at a ratio of 1:1 (2×10^6) to peripheral CD4^+ T cells labeled with carboxyfluorescein succinimidyl ester (CFSE) (Invitrogen, CA), and either unstimulated or stimulated with anti-CD3/CD28 beads.
(§1) Proliferation of CD4^+ T-cells measured by CFSE dilution was evaluated by flow cytometry. CD4+ T cells were labeled with PE anti-CD4 antibody. Percent suppression was calculated based on equation 1:
(§2) % Supp=100*[1−(%Exp/%Control)] (1)
(§3) where: • %Supp=percent suppression • %Exp=the percentage of proliferating CD4+ T cells in the experimental population • % Control=the percentage of proliferating CD4+ T cells in the control population
These peptides were selected due to their activity in the phosphorylation assay. […] Peptides 13 and 15 were also shown to activate suppression, although to a more modest extent (˜10% suppressive activity).
Finally, peptides a-d (see FIG. 7A) were also evaluated using the same procedure, incubating the cells with each single peptide (10 μg/mL).

[2] = tested on: LcK phosphorylation in peripheral blood CD8+ T cells; test: In cell western blot LcK phosphorylation assay; conditions: 10 μg/mL, 5, 10, 15 minutes
Protocol: The library of peptides 1-20 was first evaluated by western blot for their ability to activate CD8+ T cells, as indicated by the ability to stimulate LcK phosphorylation (“pLcK”). Peripheral blood isolated CD8′ T cells (2×10^6) were seeded in a 96-well flat-bottom plate and starved in RPMI serum free medium overnight at 37° C. The next day and prior to performing the experiments, the plate was placed on ice for 15 minutes. Cells were stimulated with OKT8 (5 μg/mL) (a known CD8+ T cell activator), purified CEACAM5 peptide (10 μg/mL), the entire library of peptides (10 μg/mL), Pool 1 (10 μg/mL), Pool 2 (10 μg/mL), Pool 3 (10 μg/mL), or each single N-domain peptide (10 μg/mL). Unstimulated cells were also evaluated for each condition. Prior to these experiments a titration curve was performed for the entire library of peptides. A range of concentration between 1 and 100 μg/mL was tested.
Stimulation was stopped using a 4% formaldehyde buffer for 20 minutes followed by centrifugation for 10 minutes at 1,500 rpm. Permeabilization was performed by washing the cells with 1×PBS containing 0.1% Triton X-100 for 5 minutes per wash. After permeabilization, cells were incubated for 1 hour with a blocking buffer (Odyssey Blocking buffer-LICOR) followed by the primary antibodies (goat anti-actin and rabbit anti-pLcK) overnight at 4° C. The next day, cells were washed 5 times with 1×PBS containing 0.1% Tween 20, incubated for 1 hour at room temperature with the secondary antibodies (IRDye 800CW donkey anti goat IgG, IRDye 680 CW donkey anti rabbit IgG), and then washed five times. Wells were dried and the plate was scanned using an Odyssey LiCOR system. The software ImageJ was used for quantification of pLcK. Each value was calculated using actin expression as a house keeping gene and taking into consideration any background noise. […]

[3] = tested on: Crohn's disease lamina propria CD8+ T cells; test: In vitro suppression assay, Crohn's disease lamina propria CD8+ T cells (suppression of CD4+ T cell proliferation); conditions: for average suppression percentage (suppressor phenotype): Crohn's disease lamina propria CD8+ cells, relative to CD4+ proliferation with normal unstimulated CD8+ T cells
Protocol: (§4) Lamina propria lymphocytes were isolated from patients undergoing surgery for Crohn's disease (CD) or colon cancer (representing a normal (NL) T cell population). Lamina propria CD8+ T cells were isolated after overnight incubation and incubated with CEACAM5 peptide for 3 days. CD8+ T cells were then washed and co-cultured with CFSE-CD3/CD28-stimulated CD4+ T cells for 3 days. Suppression of CD4+ T cell proliferation was measured on the 7th day.
as §1, §2, §3
as §4, with “peptide or peptide 12” for “peptide”

[4] = tested on: CD8-associated LcK kinase in CD8+ T cells; test: Flow cytometry LcK phosphorylation assay; conditions: 2, 8, 10, 15 minutes at 37° C., peptide 12 at 20 μg/ml
Protocol: To confirm the ability of peptide 12 to activate CD8+ T cells, a second LcK phosphorylation assay was conducted using flow cytometry. CD8+ T cells were treated for different time points (2, 8, 10, 15 minutes) at 37° C. with H2O2 at 10 mM, CEACAM5 supernatant from PIPLC-293T cells expressing CEACAM5, and peptide 12 (20 μg/ml). Stimulation was stopped by fixing with 4% formaldehyde for 10 minutes at room temperature. Subsequently, cells were permeabilized with ice-cold methanol for 20 minutes, washed with PBS containing 0.2% FBS, and then stained with anti-phospho-Lck Ab (BD Biosciences, San Jose, Calif.). The cells were then re-suspended in PBS plus 0.2% FBS, data were acquired using the FACScan system (LSRFortessa, BD Biosciences), and analyzed with FlowJo analysis software (Ashland, Oreg.).

[5] = tested on: normal lamina propria CD8+ T cells; test: Cytokine IL10 production in lamina propria CD8+ T cells; conditions: cultured 3 days; supernatant assessed
Protocol: Cytokine production in lamina propria CD8+ T cells was evaluated. Normal lamina propria CD8+ and CD4+(control) T cells were cultured for 3 days in presence of OKT8 (control) or either CEACAM5 or peptide 12. The supernatant was then assessed for cytokine production.

[6] = tested on: normal lamina propria CD8+ T cells; test: In vitro suppression assay, normal (colon cancer) lamina propria CD8+ T cells; conditions: normal condition (colon cancer biopsies); CD8+ T cells incubated 3 days, vs absence of CEACAM5
Protocol: as §4
as §4, with “peptide or peptide 12” for “peptide”

With H-YSGREIIYPNASLLI-OH [peptide 13] the “percent suppression of CD4+ T cell proliferation (suppressive activity)” value [1] was ~10%.

With H-GTQQATPGPAYSGRE-OH [peptide 11] the “CD8+ T cell activation (LcK phosphorylation, p-LcK)” value [2] was “induced phosphorylation of LcK at after 10 minutes”.

With H-IGYVIGTQQATPGPA-OH [peptide 10] the “CD8+ T cell activation (LcK phosphorylation, p-LcK)” value [2] was “induced phosphorylation of LcK at after 10 minutes”.

For H-TPGPAYSGREIIYPN-OH [peptide 12], the “average suppression percentage (suppressor phenotype)” value [3] was 64%, the “CD8+ T cell activation (LcK phosphorylation, p-LcK)” value [2] was “greatest effect in the activation of CD8+ T cells” and the “suppressor activity acquired by stimulated CD8+ T cells (suppression of CD4+ T cell proliferation)” value (“suppressor activity acquired” for short) [1] was “acquired suppressor activity at the same extant as those activated with full-length CEACAM5”. For the same molecule, the “phosphorylation of CD8-associated LcK kinase” value [4] was “induce phosphorylation of CD8-associated LcK kinase” and the IL10 production [5] was “increased IL10”.

With “TQQATPGPAYSGREIITPNA (Fragment of the CEACAM5 N-terminal domain) [peptide d]” the “suppressor activity acquired” value [1] was “acquiring suppressor activity to the same extent as cells activated with peptide 12”.

In the case of “GYVIGTQQATPGPAYSGREI (Fragment of the CEACAM5 N-terminal domain) [peptide c]”, the “suppressor activity acquired” value [1] is reported as “acquired suppressor activity”.

In the case of H-ASLLIQNIIQNDTGF-OH [peptide 15], the “percent suppression of CD4+ T cell proliferation (suppressive activity)” value [1] is reported as ~10%.

B1: CEACAM5: carcinoembryonic antigen family member 5 (GenBank Accession No. NP_001278413), full-length purified glycoprotein used as comparator (protein)
chain: KLTIESTPFNVAEGKEVLLLVHNLPQHLFGYSWYKGERVDGNRQIIGYVIGTQQATPGPAYSGREIIYPNASLLIQNIIQNDTGFYTLHVIKSDLVNEEATGQFRVYPELPKPSISSNNSKPVEDKDAVAFTCEPETQDATYLWWVNNQSLPVSPRLQLSNGNRTLTLFNVTRNDTASYKCETQNPVSARRSDSVILNVLYGPDAPTISPLNTSYRSGENLNLSCHAASNPPAQYSWFVNGTFQQSTQELFIPNITVNNSGSYTCQAHNSDTGLNRTTVTTITVYEPPKPFITSNNSNPVEDEDAVALTCEPEIQNTTYLWWVNNQSLPVSPRLQLSNDNRTLTLLSVTRNDVGPYECGIQNELSVDHSDPVILNVLYGPDDPTISPSYTYYRPGVNLSLSCHAASNPPAQYSWLIDGNIQQHTQELFISNITEKNSGLYTCQANNSASGHSRTTVKTITVSAELPKPSISSNNSKPVEDKDAVAFTCEPEAQNTTYLWWVNGQSLPVSPRLQLSNGNRTLTLFNVTRNDARAYVCGIQNSVSANRSDPVTLDVLYGPDTPIISPPDSSYLSGANLNLSCHSASNPSPQYSWRINGIPQQHTQVLFIAKITPNNNGTYACFVSNLATGRNNSIVKSITVSASGTSPGLSA
B1 was tested, and the “average suppression percentage (suppressor phenotype)” value [3] was 63%, the “suppressive function of lamina propria CD8+ T cells” value ([3]; Crohn's disease, CD8+ T cells incubated 3 days) was “stimulates the suppressive function” and the “suppressive function of lamina propria CD8+ T cells” value [6] was “increased suppressive function”. For the same molecule, the “phosphorylation of CD8-associated LcK kinase” value [4] was “induce phosphorylation of CD8-associated LcK kinase” and the IL10 production [5] was “increased IL10”.
